From paper PMC9655037, “Alternation of Organ-Specific Exposure in LPS-Induced Pneumonia Mice after the Inhalation of Tetrandrine Is Governed by Metabolizing Enzyme Suppression and Lysosomal Trapping” (International Journal of Molecular Sciences, 2022)

Key:
[1] = Bidirectional transport in MOCK LLC-PK1 cells; details: pig
Method: (§1) MDR1 expressing LLC-PK1 cells or MOCK LLC-PK1 cells were utilized to identify whether P-gp is involved in the efflux transport across the membrane barrier. Cells were cultured as described above. Cells were seeded at a density of 2 × 10^4 in Millicell® 24-well cell culture plates with a 6.5 mm insert (0.4 µm polycarbonate membrane) from Corning (Kennebunk, ME, USA) 7 days before the experiments. On the day of the experiment, transepithelial electrical resistance (TEER) was measured to assess monolayer integrity. After washing the cells twice with HBSS, transport experiments in either the apical-to-basolateral direction (A-B) or the basolateral-to-apical direction (B-A) were conducted. […] After incubating the plates at 37 °C for 2 h, samples from the receiving and donor wells (50 μL) were taken simultaneously. All the samples were stored at −40 °C for LC-MS/MS analysis.
(§2) In the bidirectional transport study in LLC-PK1 cells, the following equations were used to calculate Papp values and the MDR1 efflux ratio.

[2] = biological target: MDR1 (P-gp) (Homo sapiens, UniProt P08183); experiment: in vitro
Method: as §1, §2

[3] = In vitro experiments for fup, fu,mic and Rb/p used in the well-stirred model; format: in vitro ADME
Method: (3) CLint,scaled=CLint,app×45mg microsomes/g liver×g liver/kg body weight (4) CLh,blood=Q×fu,p/Rb/p×CLint/fu,mic/Q+CLint·fu,p/Rb·CLint/fu,mic

[4] = biological target: T1, OATP1B3 (Homo sapiens, UniProt Q9NPD5); experiment: Uptake by OATP1B3-expressing HEK293 cells; details: human, 5 min
T1 sequence (Q9NPD5 1-702): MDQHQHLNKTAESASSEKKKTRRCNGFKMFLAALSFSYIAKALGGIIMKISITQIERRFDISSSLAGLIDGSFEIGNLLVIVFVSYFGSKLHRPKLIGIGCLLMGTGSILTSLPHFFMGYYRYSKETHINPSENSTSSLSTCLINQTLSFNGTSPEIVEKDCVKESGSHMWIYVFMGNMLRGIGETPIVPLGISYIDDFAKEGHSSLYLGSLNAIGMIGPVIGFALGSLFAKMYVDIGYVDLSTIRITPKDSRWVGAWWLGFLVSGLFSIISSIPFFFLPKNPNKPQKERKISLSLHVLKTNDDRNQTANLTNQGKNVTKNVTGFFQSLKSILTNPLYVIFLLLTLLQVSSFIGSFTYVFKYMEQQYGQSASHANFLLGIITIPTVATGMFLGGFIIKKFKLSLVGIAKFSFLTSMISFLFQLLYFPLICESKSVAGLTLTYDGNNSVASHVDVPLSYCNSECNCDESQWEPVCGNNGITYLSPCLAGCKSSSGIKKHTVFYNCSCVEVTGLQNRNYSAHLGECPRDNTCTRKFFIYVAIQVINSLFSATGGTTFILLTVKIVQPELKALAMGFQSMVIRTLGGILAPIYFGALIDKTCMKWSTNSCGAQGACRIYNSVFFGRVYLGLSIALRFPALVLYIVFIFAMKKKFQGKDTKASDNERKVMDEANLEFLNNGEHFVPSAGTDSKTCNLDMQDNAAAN
Method: Expressing OATP1B1/OATP1B3 or MOCK HEK293 cells were utilized to evaluate whether TET is a substrate of these two SLC transporters. Cell culture was performed as mentioned above. Cells were seeded on 96-well plates at the density of 0.8 × 10^5 cells/well. The culture medium was replaced with a medium containing 5 mM sodium butyrate for 24 h before the transport study to enhance the expression of transporters. For the transport assay, the DMEM media were removed and the cells were washed with pre-warmed Krebs–Henseleit buffer twice (0.1 mL/well). The second washing buffer was kept in the wells and the plate was incubated at 37 °C for 5 min before the uptake assay was initiated. […] The incubation solution was removed and the cells were washed with ice-cold transportation buffer three times (0.1 mL/well). A total of 0.1 mL pure water was added to each well to lyse the cells by repeated freezing and thawing (−196 °C–37 °C, three times). The cell lysate was collected and stored at −40 °C for LC-MS/MS analysis and protein measurement.
In the uptake study of TET by OATP1B1 and OATP1B3 expressing the HEK293 cell line, the uptake clearance (U) of the substrate was calculated according to Equation (5), the transporter-mediated uptake ratio (UR) was calculated by dividing the uptake clearance from transporter-expressing cells to that from the mock cells according to Equation (6), and the inhibition ratio (IR) was calculated according to Equation (7), where p represents the protein content and T is the duration of the incubation time. (5) U=Clysate/p×T (6) UR=U/UMOCK (7) IR=(1−Uwith inhibitor−Umock with inhibitor/Uwithout inhibitor−Umock without inhibitor)×100

[5] = tested on: CYP3A; details: cited from earlier work

Sequence of MDR1 (P-gp) (P08183 whole entry): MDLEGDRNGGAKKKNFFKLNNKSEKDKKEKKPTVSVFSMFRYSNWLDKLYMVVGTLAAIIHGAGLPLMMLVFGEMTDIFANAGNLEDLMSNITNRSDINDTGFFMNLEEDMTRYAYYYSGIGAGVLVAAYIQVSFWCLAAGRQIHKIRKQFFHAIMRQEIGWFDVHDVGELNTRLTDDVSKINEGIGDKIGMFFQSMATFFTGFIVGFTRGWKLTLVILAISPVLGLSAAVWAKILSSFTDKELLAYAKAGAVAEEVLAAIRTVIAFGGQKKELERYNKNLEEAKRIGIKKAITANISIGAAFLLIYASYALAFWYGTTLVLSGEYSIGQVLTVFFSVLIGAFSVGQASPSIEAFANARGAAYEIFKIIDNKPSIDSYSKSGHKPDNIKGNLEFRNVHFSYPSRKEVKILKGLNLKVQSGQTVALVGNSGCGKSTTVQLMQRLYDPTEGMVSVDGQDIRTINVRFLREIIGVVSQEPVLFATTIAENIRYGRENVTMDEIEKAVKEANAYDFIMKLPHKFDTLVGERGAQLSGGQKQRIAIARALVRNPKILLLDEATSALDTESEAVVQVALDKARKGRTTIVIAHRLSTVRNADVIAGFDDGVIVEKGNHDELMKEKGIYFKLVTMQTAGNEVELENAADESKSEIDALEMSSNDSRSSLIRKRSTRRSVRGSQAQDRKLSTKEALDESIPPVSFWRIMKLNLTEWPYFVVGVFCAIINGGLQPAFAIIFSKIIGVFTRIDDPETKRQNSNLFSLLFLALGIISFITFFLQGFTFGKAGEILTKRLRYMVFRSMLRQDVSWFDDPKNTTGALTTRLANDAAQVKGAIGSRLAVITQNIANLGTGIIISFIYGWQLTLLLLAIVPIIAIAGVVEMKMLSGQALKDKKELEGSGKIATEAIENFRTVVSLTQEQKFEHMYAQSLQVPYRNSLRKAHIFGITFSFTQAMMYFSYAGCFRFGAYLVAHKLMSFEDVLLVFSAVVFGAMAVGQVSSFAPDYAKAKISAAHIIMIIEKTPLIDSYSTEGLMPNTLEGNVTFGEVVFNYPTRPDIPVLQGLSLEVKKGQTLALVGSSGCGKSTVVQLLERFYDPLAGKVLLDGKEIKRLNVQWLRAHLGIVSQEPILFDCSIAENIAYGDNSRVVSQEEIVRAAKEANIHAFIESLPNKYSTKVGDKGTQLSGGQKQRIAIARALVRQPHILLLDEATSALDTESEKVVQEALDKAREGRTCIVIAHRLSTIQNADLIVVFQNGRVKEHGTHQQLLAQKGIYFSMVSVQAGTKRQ

## COc1ccc2cc1Oc1ccc(cc1)C[C@H]1c3cc(c(OC)cc3CCN1C)Oc1c(OC)c(OC)cc3c1[C@H](C2)N(C)CC3 [TET, Tetrandrine]
[1]
  Papp A→B at 2 h: 1.22 ± 0.07 ×10⁻⁶ cm/s
  Papp B→A at 2 h: 3.83 ± 0.12 ×10⁻⁶ cm/s
[1]; LLC-PK1
  efflux ratio at 2 h: 3.13
[2]
  Papp A→B at 2 h: 0.52 ± 0.19 ×10⁻⁶ cm/s
[2]; human, LLC-PK1
  Papp B→A at 2 h: 14 ± 2.95 ×10⁻⁶ cm/s
  efflux ratio at 2 h: 32.5
[3]
  Rb/p: 2.39
  fup: 0.01
[3]; obtained from in vitro experiments
  fraction unbound: 0.18
[4]; 5 µM
  Inhibition Ratio: 20.6
  Uptake Clearance: 120 ± 8.61 nM/min/mg Protein
  Uptake Ratio: 1.01
[4]; 5 μM
  Uptake Clearance: 151 ± 25.5 nM/min/mg Protein
[5]
  fm (CYP3A, major isoform toward TET): > 90%
